{"source": "patent US4851416A", "about": "“Berban derivatives as α2 -adrenergic antagonists” (priority 1985, dated 1989)", "key": {"[1]": {"molecular_target": "T1, α2-receptors of the rat vas deferens (Rattus norvegicus, UniProt P22909)", "T1 construct": "from tissue; host or cells: rat vas deferens", "T1 sequence (P22909 1-465)": "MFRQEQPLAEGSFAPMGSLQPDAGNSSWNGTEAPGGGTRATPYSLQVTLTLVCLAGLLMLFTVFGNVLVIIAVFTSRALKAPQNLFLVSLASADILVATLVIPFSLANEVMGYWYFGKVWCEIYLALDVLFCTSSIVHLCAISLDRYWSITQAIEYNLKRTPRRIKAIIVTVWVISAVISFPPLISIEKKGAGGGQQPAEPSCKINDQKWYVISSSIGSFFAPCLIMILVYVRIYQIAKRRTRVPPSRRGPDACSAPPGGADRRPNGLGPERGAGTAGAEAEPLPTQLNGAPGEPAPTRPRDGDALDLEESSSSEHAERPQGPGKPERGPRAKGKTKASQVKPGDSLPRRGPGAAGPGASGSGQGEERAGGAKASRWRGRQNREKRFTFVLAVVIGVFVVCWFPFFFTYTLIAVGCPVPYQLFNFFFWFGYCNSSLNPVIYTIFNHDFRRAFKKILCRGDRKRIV", "assay": "Antagonism of α2-receptors of the rat vas deferens (xylazine as agonist)", "format": "biochemical", "conditions": "for Kb: read-out: pA2 (α2, rat vas deferens) (converted)", "description": "The action of known α-adrenergic receptor-blocking agents and the\nformula (I) on the α2 -receptors of the rat vas deferens\n(xylazine as agonist) and of the\nThe tissues were suspended at 37° C. in an organ bath containing 5 ml of Krebs solution. […] Both the compounds of formula (I) and the reference substances were tested against xylazine (on the rat vas daferens) as well as against […] (on the longitudinal smooth muscle preparation from the guinea pig ileum). The amplitude of the contraction response caused by the stimulation is inhibited on the α2 -adrenergic receptors by xylazine or norepinephrine."}, "[2]": {"molecular_target": "α1-receptors of the pulmonary artery of rabbit", "assay": "Antagonism of α1-receptors of the pulmonary artery of rabbit (norepinephrine as agonist)", "format": "biochemical", "conditions": "compounds of formula (I) as hydrochlorides", "excerpt": "On the α1 -receptors of the pulmonary artery, a contraction is elicited by norepinephrine which is inhibited by antagonists."}, "[3]": {"molecular_target": "T2, α1-receptors of the rat vas deferens (Rattus norvegicus, UniProt P43140)", "T2 construct": "from tissue; host or cells: rat vas deferens", "T2 sequence (P43140 1-466)": "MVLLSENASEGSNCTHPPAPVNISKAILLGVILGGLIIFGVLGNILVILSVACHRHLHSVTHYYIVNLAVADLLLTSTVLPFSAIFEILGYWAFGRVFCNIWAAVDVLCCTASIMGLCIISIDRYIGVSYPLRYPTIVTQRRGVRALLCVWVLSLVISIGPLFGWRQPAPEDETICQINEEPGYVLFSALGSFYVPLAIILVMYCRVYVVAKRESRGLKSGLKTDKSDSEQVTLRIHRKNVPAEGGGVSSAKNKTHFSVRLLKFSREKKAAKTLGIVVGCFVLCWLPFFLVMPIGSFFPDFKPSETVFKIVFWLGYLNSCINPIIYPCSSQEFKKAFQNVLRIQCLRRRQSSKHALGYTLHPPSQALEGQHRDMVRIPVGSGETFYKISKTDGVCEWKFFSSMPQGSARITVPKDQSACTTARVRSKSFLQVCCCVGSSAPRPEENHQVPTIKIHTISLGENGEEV", "assay": "Antagonism of α1-receptors of the rat vas deferens (phenylephrine as agonist)", "format": "biochemical", "design": "key to nature of the competition (α1, rat vas deferens): NC means non-competitive; C means competitive", "conditions": "for Kb: compounds of formula (I) as hydrochlorides, read-out: pA2 (α1, rat vas deferens) (converted)", "description": "Phenylephrine was used as agonist on the α1 -adrenergic receptors whereby both the rat vas deferens and the pulmonary artery of the rabbit were contracted. […] The pA2 value was determined by using the method of Arunlakshana and Schield (1959) cited above. The nature of the competition is also given (NC means non-competitive, C means competitive)."}, "[4]": {"tested_on": "norepinephrine turnover in the frontal cortex", "assay": "Norepinephrine turnover in the frontal cortex after α-methyl-p-tyrosine", "format": "in vivo, rat", "conditions": "for Kb (fractional rate constant) / Tt (catecholamine turnover time) / TRCA (catecholamine turnover rate): NE, with α-MPT; for TRCA (catecholamine turnover rate): ** p 0.01, *** p 0.001 vs control; for NE content: α-MPT 320 mg/kg i.p. pre-treatment, 4 animals", "description": "(§1) Male rates with 100 g of body-weight were intraperitoneally pre-treated (at minute 0) with 320 mg/kg of α-methyl-p-tyrosine. […] After centrifuging, the norepinephrine content (frontal cortex) or the dopamine content (striatum) of the supernatant, respectively, was determined by using the method of the […] liquid chromatography-electrochemical detection. […] The significance level of the difference related to the control group was also determined (** p 0.01; *** p 0.001)."}, "[5]": {"tested_on": "dopamine turnover in the striatum", "assay": "Dopamine turnover in the striatum after α-methyl-p-tyrosine", "format": "in vivo, rat", "conditions": "for Kb (fractional rate constant) / Tt (catecholamine turnover time) / TRCA (catecholamine turnover rate): DA, with α-MPT; for TRCA (catecholamine turnover rate): ** p 0.01 vs control; for DA content: α-MPT 320 mg/kg i.p. pre-treatment, 4 animals", "description": "as §1"}, "[6]": {"molecular_target": "α1-receptors of the pulmonary artery of rabbit", "assay": "Antagonism of α1-receptors of the pulmonary artery of rabbit (phenylephrine as agonist)", "format": "biochemical", "conditions": "compounds of formula (I) as hydrochlorides", "description": "The action of known α-adrenergic receptor-blocking\non the α1 -receptors of the rat vas deferens and of\nthe pulmonary artery of rabbit against phenylephrine\nPhenylephrine was used as agonist on the α1 -adrenergic receptors whereby both the rat vas deferens and the pulmonary artery of the rabbit were contracted. This concractile effect was inhibited by antagonists. The pA2 value was determined by using the method of Arunlakshana and Schield (1959) cited above. The nature of the competition is also given (NC means non-competitive, C means competitive)."}, "[7]": {"tested_on": "α2-receptors (vs α1-receptors) of the rat vas deferens", "assay": "Selectivity against the α2-receptors on the rat vas deferens (from Tables 1 and 2)", "format": "biochemical", "conditions": "calculated from Tables 1 and 2, hydrochlorides", "excerpt": "The pA2 values concerning the α1 -receptor of the antagonists were divided by the pA2 values concerning the α2 -receptor of the antagonists (α1 /α2)."}, "[8]": {"conditions": "xylazine as agonist, compounds of formula (I) as hydrochlorides, (n) in brackets"}}, "note": "Counter-ions that a name gives are not always drawn. Like-named read-outs stand apart in the source and are kept apart here."}
{"smiles": "Oc1cc2c(cc1O)[C@H]1C[C@H]3C[C@@H](O)CC[C@H]3CN1CC2", "note": "(relative stereo) [As hydrobromide]", "values": [{"measurement": "Relative activity, vas deferens", "setting": "[1]", "result": 0.01}, {"measurement": "pA2 (α2, rat vas deferens)", "setting": "[1]; [8]", "result": "5.74 ± 0.11"}]}
{"smiles": "CCOc1cc2c(cc1OCC)[C@H]1C[C@H]3C[C@@H](O)CC[C@H]3CN1CC2", "note": "(relative stereo) [Example 11, 14β-hydroxy-7,8-diethoxyalloberban]", "values": [{"measurement": "Relative activity, vas deferens", "setting": "[1]", "result": 0.05}, {"measurement": "Kb", "setting": "[1]; [8]", "result": 380, "unit": "nM"}]}
{"smiles": "O[C@H]1CC[C@H]2CN3CCc4cc5c(cc4[C@H]3C[C@H]2C1)OCO5", "note": "(relative stereo) [Example 25, 14β-hydroxy-7,8-methylenedioxyalloberban]", "values": [{"measurement": "pA2 (α1, pulmonary artery of rabbit)", "setting": "[2]", "result": "4.83 ± 0.52"}, {"measurement": "nature of the competition (α1, rat vas deferens)", "setting": "[3]", "result": "NC"}, {"measurement": "Kb", "setting": "[3]", "result": 14100, "unit": "nM"}]}
{"smiles": "O[C@@H]1CC[C@H]2CN3CCc4cc5c(cc4[C@H]3C[C@H]2C1)OCO5", "note": "(relative stereo) [Example 26, 14α-hydroxy-7,8-methylenedioxyalloberban]", "values": [{"measurement": "Kb (fractional rate constant)", "setting": "[4]", "result": 0.740, "unit": "h⁻¹"}, {"measurement": "Tt (catecholamine turnover time)", "setting": "[4]", "result": 1.35, "unit": "h"}, {"measurement": "TRCA (catecholamine turnover rate)", "setting": "[4]", "result": "0.64 ± 0.03 nmole/g, h^-1"}, {"measurement": "NE content", "setting": "[4]", "result": "0.87 ± 0.05", "unit": "nmol/g"}, {"measurement": "Kb (fractional rate constant)", "setting": "[5]", "result": 0.776, "unit": "h⁻¹"}, {"measurement": "Tt (catecholamine turnover time)", "setting": "[5]", "result": 1.28, "unit": "h"}, {"measurement": "TRCA (catecholamine turnover rate)", "setting": "[5]", "result": "37.27 ± 3.62 nmole/g, h^-1"}, {"measurement": "DA content", "setting": "[5]", "result": "48.03 ± 4.66", "unit": "nmol/g"}, {"measurement": "pA2 (α1, pulmonary artery of rabbit)", "setting": "[2]", "result": "5.29 ± 0.20"}, {"measurement": "nature of the competition (α1, rat vas deferens)", "setting": "[3]", "result": "NC"}, {"measurement": "Kb", "setting": "[3]", "result": 11200, "unit": "nM"}]}
{"smiles": "COC(=O)C1C(O)CCC2CN3CCc4cc5c(cc4C3CC21)OCO5", "note": "(stereo not drawn) [Example 1, methyl 14-β-hydroxy-7,8-methylenedioxy-alloberban-13-carboxylate]", "values": [{"measurement": "nature of the competition (α1, rat vas deferens)", "setting": "[3]", "result": "NC"}, {"measurement": "Kb", "setting": "[3]", "result": 661, "unit": "nM"}, {"measurement": "pA2 (α1, pulmonary artery of rabbit)", "setting": "[6]", "result": "4.68 ± 0.27"}]}
{"smiles": "COC(=O)C1C(O)CCC2CN3CCc4cc5c(cc4C3CC21)OCO5", "note": "(stereo not drawn) [Example 6, methyl 14α-hydroxy-7,8-methylenedioxyberban-13-carboxylate]", "values": [{"measurement": "pA2 (α1, pulmonary artery of rabbit)", "setting": "[6]", "result": "4.61 ± 0.2"}]}
{"smiles": "CCOC(=O)C1C(O)CCC2CN3CCc4cc5c(cc4C3CC21)OCO5", "note": "(stereo not drawn) [Example 17, ethyl 14β-hydroxy-7,8-methylenedioxyalloberban-13-carboxylate]", "values": [{"measurement": "nature of the competition (α1, rat vas deferens)", "setting": "[3]", "result": "NC"}, {"measurement": "Kb", "setting": "[3]", "result": 3090, "unit": "nM"}]}
{"smiles": "c1ccc2c(c1)OCC(C1=NCCN1)O2", "note": "(centres unmarked) [Idazoxan, reference compound]", "values": [{"measurement": "pA2 (α1, pulmonary artery of rabbit)", "setting": "[2]", "result": "6.03 ± 0.11"}, {"measurement": "nature of the competition (α1, rat vas deferens)", "setting": "[3]", "result": "NC"}, {"measurement": "Kb", "setting": "[3]", "result": 1000, "unit": "nM"}]}
{"smiles": "CCn1ccnc1CC1COc2ccccc2O1", "note": "(centres unmarked) [Imiloxan, reference compound]", "values": [{"measurement": "Kb", "setting": "[1]; [8]", "result": 145, "unit": "nM"}, {"measurement": "Relative activity, vas deferens", "setting": "[1]; α2-inhibiting effect relative to yohimbine = 1.0", "result": 0.13}, {"measurement": "nature of the competition (α1, rat vas deferens)", "setting": "[3]", "result": "NC"}, {"measurement": "Kb", "setting": "[3]", "result": 52.5, "unit": "nM"}, {"measurement": "Selectivity α1/α2", "setting": "[7]", "result": 0.36}]}
{"smiles": "Cc1ccc(N(CC2=NCCN2)c2cccc(O)c2)cc1", "note": "[Phentolamine, reference compound]", "values": [{"measurement": "nature of the competition (α1, rat vas deferens)", "setting": "[3]", "result": "C"}]}
{"smiles": "COC(=O)[C@@H]1[C@H]2C[C@H]3c4[nH]c5ccccc5c4CCN3C[C@@H]2CC[C@@H]1O", "note": "[Yohimbine, reference compound]", "values": [{"measurement": "Kb (fractional rate constant)", "setting": "[4]", "result": 0.880, "unit": "h⁻¹"}, {"measurement": "Tt (catecholamine turnover time)", "setting": "[4]", "result": 1.13, "unit": "h"}, {"measurement": "TRCA (catecholamine turnover rate)", "setting": "[4]", "result": "0.87 ± 0.06 nmole/g, h^-1"}, {"measurement": "NE content", "setting": "[4]", "result": "0.99 ± 0.07", "unit": "nmol/g"}, {"measurement": "Kb (fractional rate constant)", "setting": "[5]", "result": 0.906, "unit": "h⁻¹"}, {"measurement": "Tt (catecholamine turnover time)", "setting": "[5]", "result": 1.10, "unit": "h"}, {"measurement": "TRCA (catecholamine turnover rate)", "setting": "[5]", "result": "58.40 ± 5.47 nmole/g, h^-1"}, {"measurement": "DA content", "setting": "[5]", "result": "64.46 ± 6.04", "unit": "nmol/g"}, {"measurement": "pA2 (α1, pulmonary artery of rabbit)", "setting": "[2]", "result": "5.81 ± 0.37"}, {"measurement": "nature of the competition (α1, rat vas deferens)", "setting": "[3]", "result": "NC"}, {"measurement": "pA2 (α1, pulmonary artery of rabbit)", "setting": "[6]", "result": "5.59 ± 0.4"}]}
